In ChEMBL document CHEMBL1201862, “PubChem BioAssay data set” (2004):
The source made the active and inactive calls.

Assays:
[1] = biological target: Epidermal growth factor receptor (Homo sapiens, UniProt P00533)
[2] = biological target: MAP kinase-activated protein kinase 3 (Homo sapiens, UniProt Q16644); format: functional;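 further: value comes from a kinome-wide profiling panel in which MAPKAPK3 is one of the panel members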
[3] = biological target: Serine/threonine-protein kinase pim-3 (Homo sapiens, UniProt Q86V86); format: functional;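 further: value obtained as one member of a broad kinase panel profiling effort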
[4] = biological target: Serine/threonine-protein kinase TAO1 (Homo sapiens, UniProt Q7L7X3); format: functional
[5] = biological target: Vascular endothelial growth factor receptor 3 (Homo sapiens, UniProt P35916); format: functional;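 further: value from a kinome-wide profiling panel, with FLT4 as the panel member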
[6] = biological target: Mitogen-activated protein kinase 9 (Homo sapiens, UniProt P45984); format: functional;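 further: value from a kinome panel profiling assay, MAPK9 panel entry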
[7] = biological target: Homeodomain-interacting protein kinase 4 (Homo sapiens, UniProt Q8NE63); format: functional
[8] = biological target: Serine/threonine-protein kinase PAK 4 (Homo sapiens, UniProt O96013); format: functional;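 further: value obtained within a kinome profiling panel in which PAK4 was one of the panel members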
Sequence of Serine/threonine-protein kinase PAK 4 (O96013 whole entry): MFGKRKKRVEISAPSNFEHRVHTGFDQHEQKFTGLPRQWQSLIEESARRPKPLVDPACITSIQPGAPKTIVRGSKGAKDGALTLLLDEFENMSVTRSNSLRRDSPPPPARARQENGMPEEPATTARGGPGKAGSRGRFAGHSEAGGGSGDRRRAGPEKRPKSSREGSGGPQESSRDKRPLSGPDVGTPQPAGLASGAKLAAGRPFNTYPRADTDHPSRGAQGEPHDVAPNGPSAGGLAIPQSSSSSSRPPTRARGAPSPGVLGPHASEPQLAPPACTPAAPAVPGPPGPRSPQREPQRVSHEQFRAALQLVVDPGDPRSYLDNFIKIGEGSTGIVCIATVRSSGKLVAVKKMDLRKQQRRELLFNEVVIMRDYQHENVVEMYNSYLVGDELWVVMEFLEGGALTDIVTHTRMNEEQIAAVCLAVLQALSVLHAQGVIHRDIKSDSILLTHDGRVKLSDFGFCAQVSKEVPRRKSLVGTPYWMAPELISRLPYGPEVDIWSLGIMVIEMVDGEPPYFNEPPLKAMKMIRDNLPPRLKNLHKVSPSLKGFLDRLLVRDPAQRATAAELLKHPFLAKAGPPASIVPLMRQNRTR

[9] = biological target: Serine/threonine-protein kinase PLK1 (Homo sapiens, UniProt P53350); format: functional;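 further: PLK1 measured as one member of a kinome-wide profiling panel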
[10] = biological target: Casein kinase I isoform delta (Homo sapiens, UniProt P48730); format: functional;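 further: measured as one member (CSNK1D) of a kinome panel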
Sequence of Casein kinase I isoform delta (P48730 whole entry, canonical isoform): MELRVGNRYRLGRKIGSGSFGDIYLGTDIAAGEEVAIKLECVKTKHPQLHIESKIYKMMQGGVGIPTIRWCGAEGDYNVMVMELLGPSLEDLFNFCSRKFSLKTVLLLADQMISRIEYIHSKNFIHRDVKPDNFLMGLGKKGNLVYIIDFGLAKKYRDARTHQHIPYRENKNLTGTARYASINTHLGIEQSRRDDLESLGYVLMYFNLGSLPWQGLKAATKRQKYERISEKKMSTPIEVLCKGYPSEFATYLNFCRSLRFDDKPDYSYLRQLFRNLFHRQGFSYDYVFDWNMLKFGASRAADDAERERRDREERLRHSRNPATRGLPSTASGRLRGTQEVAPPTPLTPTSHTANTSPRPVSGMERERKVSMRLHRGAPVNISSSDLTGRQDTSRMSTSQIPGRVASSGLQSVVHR

[11] = biological target: Proto-oncogene tyrosine-protein kinase Src (Homo sapiens, UniProt P12931); format: functional;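 further: SRC entry within a kinome-wide kinase profiling panel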
[12] = biological target: Tyrosine-protein kinase BTK (Homo sapiens, UniProt Q06187); format: functional
[13] = biological target: Death-associated protein kinase 3 (Homo sapiens, UniProt O43293); format: functional;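 further: measured as one member of a kinome-wide profiling panel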
[14] = biological target: RAC-alpha serine/threonine-protein kinase (Homo sapiens, UniProt P31749); format: functional;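 further: AKT1 affinity measured as one member of a kinome-wide kinase profiling panel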
[15] = biological target: Tyrosine-protein kinase ABL1 (Homo sapiens, UniProt P00519); format: functional
[16] = biological target: Protein kinase C gamma type (Homo sapiens, UniProt P05129); format: functional
Aurora kinase B = Aurora kinase B (Homo sapiens, UniProt Q96GD4); format: functional
[17] = biological target: Dual specificity protein kinase CLK4 (Homo sapiens, UniProt Q9HAZ1); format: functional
[18] = biological target: Fibroblast growth factor receptor 3 (Homo sapiens, UniProt P22607); format: functional
[19] = biological target: Receptor tyrosine-protein kinase erbB-4 (Homo sapiens, UniProt Q15303); format: functional;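 further: ERBB4 member of a kinome-wide kinase profiling panel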
[20] = biological target: Serine/threonine-protein kinase PLK4 (Homo sapiens, UniProt O00444); format: functional;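 further: PLK4 measured as one member of a kinome-wide kinase profiling panel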
Sequence of Serine/threonine-protein kinase PLK4 (O00444 whole entry): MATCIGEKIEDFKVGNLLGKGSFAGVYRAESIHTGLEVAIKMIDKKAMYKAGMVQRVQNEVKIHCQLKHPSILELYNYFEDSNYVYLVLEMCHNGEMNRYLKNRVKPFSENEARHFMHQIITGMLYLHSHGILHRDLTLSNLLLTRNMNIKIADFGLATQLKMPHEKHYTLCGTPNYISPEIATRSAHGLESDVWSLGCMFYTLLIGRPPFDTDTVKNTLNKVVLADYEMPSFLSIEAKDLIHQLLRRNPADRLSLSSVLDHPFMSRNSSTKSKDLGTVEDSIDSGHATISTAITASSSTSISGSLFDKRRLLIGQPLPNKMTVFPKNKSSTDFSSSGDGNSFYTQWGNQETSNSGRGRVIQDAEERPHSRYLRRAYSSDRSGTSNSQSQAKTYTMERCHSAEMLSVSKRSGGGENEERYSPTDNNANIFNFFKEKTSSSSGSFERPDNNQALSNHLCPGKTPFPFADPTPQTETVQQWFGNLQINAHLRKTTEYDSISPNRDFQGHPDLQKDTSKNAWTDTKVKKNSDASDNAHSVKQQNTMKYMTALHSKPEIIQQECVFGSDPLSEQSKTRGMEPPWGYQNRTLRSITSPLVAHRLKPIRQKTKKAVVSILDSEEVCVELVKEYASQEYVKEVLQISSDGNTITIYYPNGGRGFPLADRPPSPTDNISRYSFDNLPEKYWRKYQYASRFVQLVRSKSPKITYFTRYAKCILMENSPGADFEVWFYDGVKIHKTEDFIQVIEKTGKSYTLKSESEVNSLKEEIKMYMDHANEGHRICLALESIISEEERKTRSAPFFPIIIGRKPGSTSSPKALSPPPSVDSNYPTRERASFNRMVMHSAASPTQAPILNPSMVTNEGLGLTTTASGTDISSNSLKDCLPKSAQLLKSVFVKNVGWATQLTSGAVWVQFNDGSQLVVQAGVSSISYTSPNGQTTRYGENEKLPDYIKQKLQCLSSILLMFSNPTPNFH

[21] = biological target: Serine/threonine-protein kinase 17A (Homo sapiens, UniProt Q9UEE5); format: functional
Sequence of Serine/threonine-protein kinase 17A (Q9UEE5 whole entry): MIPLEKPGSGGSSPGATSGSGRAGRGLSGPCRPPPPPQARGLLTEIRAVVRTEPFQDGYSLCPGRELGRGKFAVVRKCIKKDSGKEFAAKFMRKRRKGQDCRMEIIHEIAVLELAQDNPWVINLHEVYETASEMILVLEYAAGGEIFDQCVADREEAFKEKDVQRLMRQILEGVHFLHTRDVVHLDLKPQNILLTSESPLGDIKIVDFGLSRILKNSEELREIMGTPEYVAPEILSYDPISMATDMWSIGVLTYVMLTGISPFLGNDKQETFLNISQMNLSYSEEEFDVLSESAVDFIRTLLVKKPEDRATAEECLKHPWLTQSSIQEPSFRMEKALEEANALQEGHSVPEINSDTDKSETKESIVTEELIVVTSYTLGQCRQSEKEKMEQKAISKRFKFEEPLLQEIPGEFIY

[22] = biological target: Glycogen synthase kinase-3 beta (Homo sapiens, UniProt P49841); format: functional;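 further: value comes from a broad kinome profiling panel, with GSK3B as the panel member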
Sequence of Glycogen synthase kinase-3 beta (P49841 whole entry): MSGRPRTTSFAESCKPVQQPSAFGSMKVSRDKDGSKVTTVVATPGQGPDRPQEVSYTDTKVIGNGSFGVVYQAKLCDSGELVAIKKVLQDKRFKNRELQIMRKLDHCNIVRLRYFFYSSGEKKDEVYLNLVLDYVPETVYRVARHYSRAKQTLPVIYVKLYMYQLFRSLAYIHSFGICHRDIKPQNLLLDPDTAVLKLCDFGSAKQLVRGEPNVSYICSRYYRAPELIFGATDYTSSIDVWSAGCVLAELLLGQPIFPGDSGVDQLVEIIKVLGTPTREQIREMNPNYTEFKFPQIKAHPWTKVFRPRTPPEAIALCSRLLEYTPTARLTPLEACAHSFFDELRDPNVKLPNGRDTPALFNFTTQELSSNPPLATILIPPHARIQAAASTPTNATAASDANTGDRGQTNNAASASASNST

[23] = biological target: Protein kinase C iota type (Homo sapiens, UniProt P41743); format: functional;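 further: measured within a kinome-wide kinase panel, PRKCI as panel member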
[24] = biological target: Serine/threonine-protein kinase Nek2 (Homo sapiens, UniProt P51955); format: functional

Sequence of Epidermal growth factor receptor (P00533 whole entry): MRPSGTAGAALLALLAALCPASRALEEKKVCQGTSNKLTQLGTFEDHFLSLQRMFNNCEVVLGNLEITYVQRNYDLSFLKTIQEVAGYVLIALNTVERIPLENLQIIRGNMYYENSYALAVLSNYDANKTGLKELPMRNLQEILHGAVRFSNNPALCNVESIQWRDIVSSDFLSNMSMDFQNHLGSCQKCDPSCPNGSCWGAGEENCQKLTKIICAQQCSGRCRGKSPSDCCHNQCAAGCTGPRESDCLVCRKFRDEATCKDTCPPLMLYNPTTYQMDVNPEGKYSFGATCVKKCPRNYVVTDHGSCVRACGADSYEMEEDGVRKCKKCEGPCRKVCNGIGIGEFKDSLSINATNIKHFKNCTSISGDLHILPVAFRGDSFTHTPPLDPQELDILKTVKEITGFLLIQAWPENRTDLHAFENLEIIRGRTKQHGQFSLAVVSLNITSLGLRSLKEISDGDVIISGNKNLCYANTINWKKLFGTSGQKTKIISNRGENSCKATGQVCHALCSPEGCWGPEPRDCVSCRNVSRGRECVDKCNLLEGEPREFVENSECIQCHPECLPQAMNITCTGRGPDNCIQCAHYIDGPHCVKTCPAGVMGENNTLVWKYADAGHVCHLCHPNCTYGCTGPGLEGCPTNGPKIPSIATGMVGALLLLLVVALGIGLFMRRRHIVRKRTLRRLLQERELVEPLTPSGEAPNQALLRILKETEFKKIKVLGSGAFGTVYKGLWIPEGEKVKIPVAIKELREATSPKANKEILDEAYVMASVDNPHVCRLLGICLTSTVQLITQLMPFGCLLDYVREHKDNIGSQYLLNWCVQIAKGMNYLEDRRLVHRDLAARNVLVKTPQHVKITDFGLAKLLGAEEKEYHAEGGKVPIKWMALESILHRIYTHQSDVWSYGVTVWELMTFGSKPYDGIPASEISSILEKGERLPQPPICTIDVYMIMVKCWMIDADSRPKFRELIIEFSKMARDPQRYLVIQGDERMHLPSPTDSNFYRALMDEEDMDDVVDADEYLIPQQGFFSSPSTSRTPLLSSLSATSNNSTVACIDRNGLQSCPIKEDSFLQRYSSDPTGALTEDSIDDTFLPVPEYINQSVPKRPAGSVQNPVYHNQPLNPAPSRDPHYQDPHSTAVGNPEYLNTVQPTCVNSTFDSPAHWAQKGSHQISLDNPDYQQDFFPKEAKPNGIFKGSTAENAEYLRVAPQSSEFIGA

- Ki [1]: > 2000 nM (inactive)
- Ki [2]: 10000 nM (active)
- Ki [3]: 3160 nM (active)
- Ki [4]: 2510 nM (active)
- Ki [5]: 2510 nM (active)
- Ki [6]: 1260 nM (active)
- Ki [7]: > 7940 nM (inactive)
- Ki [8]: > 5010 nM (inactive)
- Ki [9]: > 7940 nM (inactive)
- Ki [10]: 3160 nM (active)
- Ki [11]: > 2000 nM (inactive)
- Ki [12]: > 1260 nM (inactive)
- Ki [14]: > 7940 nM (inactive)
- Ki [15]: > 631 nM (inactive)
- Ki [16]: 1580 nM (active)
- Ki (Aurora kinase B): 3980 nM (active)
- Ki [17]: 25.1 nM (active)
- Ki [18]: > 2000 nM (inactive)
- Ki [19]: > 3980 nM (inactive)
- Ki [20]: 200 nM (active)
- Ki [21]: 251 nM (active)
- Ki [22]: 100 nM (active)
- Ki [23]: 63.1 nM (active)
- Ki [24]: > 10000 nM (inactive)
Compound: NC(=O)Cn1cc(-c2cc(-c3cc4ccccc4s3)c3[nH]ncc3c2)c2nc(N)ncc21
- Ki [13]: 1000 nM (active)
